# Reference: patent US20060217440A1, “Porcess for production of 2-cyano-3-hydroxy-n-(4-trifluoromethylphenyl)hept-2-en-6-ynamide and process for production of polymorphs thereof” (priority 2003, published 2006)
# Test: Stability of the crystal forms based on DSC endothermic test
# Type: physicochemical
# Details: analysis based on measurement results of a DSC endothermic test; rank order among polymorphs of compound (I)
# Text: FIGS. 1, 4 and 7 show the IR (KBr) spectrum, DSC endothermic curve and X-ray diffraction pattern of the crystals, respectively.
# FIGS. 2, 5 and 8 show the IR (KBr) spectrum, DSC endothermic curve and X-ray diffraction pattern of the crystals, respectively.
# FIGS. 3, 6 and 9 show the […]
structure (smiles),measurement,value
"C#CCC/C(O)=C(\C#N)C(=O)Nc1ccc(C(F)(F)F)cc1 [B-form crystals, 2-cyano-3-hydroxy-N-(4-trifluoromethylphenyl) hept-2-en-6-ynamide]",stability order of the crystal forms,B-form crystals>C-form crystals>A-form crystals
